In ChEMBL document CHEMBL1201862, “PubChem BioAssay data set” (2004):
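All cell lines were grown in 96-well plates and treated with compound for 48 hours. GI50 is the concentration that inhibits growth by half.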 Active and inactive are the calls of the source. Cut-off read from the data, not from the text of the source: active = GI50 up to about 1.1 µM and inactive = higher.

Experiments:
Assay in all cases: inhibition of tumour cell growth, NCI panel, 48 h
[1] = tested on: 786-0
[2] = tested on: A498
[3] = tested on: ACHN
[4] = tested on: EKVX
[5] = tested on: HCT-116
[6] = tested on: HOP-92
[7] = tested on: HT-29
[8] = tested on: MOLT-4
[9] = tested on: Malme-3M
[10] = tested on: NCI-H460
[11] = tested on: OVCAR-4
[12] = tested on: OVCAR-5
[13] = tested on: OVCAR-8
[14] = tested on: RXF 393
[15] = tested on: SF-295
[16] = tested on: SK-MEL-5
[17] = tested on: SNB-75
[18] = tested on: UACC-257

Row | SMILES | GI50 [1] | GI50 [2] | GI50 [3] | GI50 [4] | GI50 [5] | GI50 [6] | GI50 [7] | GI50 [8] | GI50 [9] | GI50 [10] | GI50 [11] | GI50 [12] | GI50 [13] | GI50 [14] | GI50 [15] | GI50 [16] | GI50 [17] | GI50 [18]
1 | O=C(O)Cc1nc[nH]c1C(=O)O | > 100 µM (inactive) | > 100 µM (inactive) | > 100 µM (inactive) | > 100 µM (inactive) | > 100 µM (inactive) | > 100 µM (inactive) | > 100 µM (inactive) | > 100 µM (inactive) | > 100 µM (inactive) | > 100 µM (inactive) | > 100 µM (inactive) | > 100 µM (inactive) | > 100 µM (inactive) | > 100 µM (inactive) | > 100 µM (inactive) | > 100 µM (inactive) | > 100 µM (inactive) | > 100 µM (inactive)
2 | CC(=O)Nc1ccc2c3c(cc(O)c2c1)N(C(=O)CCCCCC(=O)Nc1ccc2c4c(cc(O)c2c1)N(C(=O)OC(C)(C)C)CC4CCl)CC3CCl (centres undefined) | 2.04 µM (inactive) | 1.64 µM (inactive) | 3.54 µM (inactive) | 41.9 µM (inactive) | 1.67 µM (inactive) | 3.59 µM (inactive) | 3.15 µM (inactive) | 0.0585 µM (active) | 2.17 µM (inactive) | 0.625 µM (active) | 5.36 µM (inactive) | 10 µM (inactive) | 2.35 µM (inactive) | 1.24 µM (inactive) | 5.73 µM (inactive) | 1.33 µM (inactive) | 1.49 µM (inactive) | 3.37 µM (inactive)
3 | Nc1ncnn2c(C3OC(CO)C(O)C3O)ccc12 (centres undefined) | 0.0766 µM (active) | 0.155 µM (active) | 0.17 µM (active) | 0.366 µM (active) | 0.0216 µM (active) | 0.0173 µM (active) | 0.148 µM (active) | 0.153 µM (active) | 0.0698 µM (active) | 0.097 µM (active) | 0.0906 µM (active) | 0.338 µM (active) | 0.0991 µM (active) | 0.226 µM (active) | 0.323 µM (active) | 0.226 µM (active) | 0.329 µM (active) | 0.0703 µM (active)
4 | COc1cc(OC)c2c(=O)c(O)c(-c3ccc(OC)c(OC)c3)oc2c1 | 6.87 µM (inactive) | 10.3 µM (inactive) | 4.36 µM (inactive) | 7.14 µM (inactive) | 4.94 µM (inactive) | 2.99 µM (inactive) | 28.2 µM (inactive) | 2.89 µM (inactive) | > 28.1 µM (inactive) | 3.94 µM (inactive) | 0.607 µM (active) | 10.3 µM (inactive) | 3.83 µM (inactive) | 8.99 µM (inactive) | 5.37 µM (inactive) | 5.96 µM (inactive) | 7.59 µM (inactive) | 5.25 µM (inactive)
5 | O/N=C1\CC2(N3CCOCC3)CCC1(c1ccccc1)CC2 | > 100 µM (inactive) | > 100 µM (inactive) | > 100 µM (inactive) | > 100 µM (inactive) | > 100 µM (inactive) | > 100 µM (inactive) | > 100 µM (inactive) | > 100 µM (inactive) | > 100 µM (inactive) | > 100 µM (inactive) | > 100 µM (inactive) | > 100 µM (inactive) | > 100 µM (inactive) | > 100 µM (inactive) | > 100 µM (inactive) | > 100 µM (inactive) | > 100 µM (inactive) | > 100 µM (inactive)
6 | O=C(O)c1cccc(OCCOc2cccc(C(=O)O)c2[N+](=O)[O-])c1[N+](=O)[O-] | > 100 µM (inactive) | > 100 µM (inactive) | > 100 µM (inactive) | > 100 µM (inactive) | > 100 µM (inactive) | > 100 µM (inactive) | > 100 µM (inactive) | > 100 µM (inactive) | > 100 µM (inactive) | > 100 µM (inactive) | > 100 µM (inactive) | > 100 µM (inactive) | > 100 µM (inactive) | > 100 µM (inactive) | > 100 µM (inactive) | > 100 µM (inactive) | > 100 µM (inactive) | > 100 µM (inactive)
7 | C=C1CC/C=C(\C)CCC[C@H](C)[C@@H](O)[C@@H]2OC(=O)C(=C)[C@@H]2C[C@H]1O | 3.8 µM (inactive) | 66.4 µM (inactive) | 2.73 µM (inactive) | 5.73 µM (inactive) | 6.47 µM (inactive) | 1.18 µM (inactive) | 4.22 µM (inactive) | 2.13 µM (inactive) | 5.96 µM (inactive) | 8.99 µM (inactive) | 19.1 µM (inactive) | 17.3 µM (inactive) | 4.71 µM (inactive) | 4.25 µM (inactive) | 17.2 µM (inactive) | 5.05 µM (inactive) | 12 µM (inactive) | 9.77 µM (inactive)
8 | COc1ccc2c(c1)/C(=C(\C(Cl)=C(\Cl)N1CCCCC1)[N+](=O)[O-])N2 | > 100 µM (inactive) | > 100 µM (inactive) | > 100 µM (inactive) | 48.9 µM (inactive) | > 100 µM (inactive) | > 100 µM (inactive) | > 100 µM (inactive) | 27.2 µM (inactive) | > 100 µM (inactive) | > 100 µM (inactive) | 87.5 µM (inactive) | > 100 µM (inactive) | 87.5 µM (inactive) | 64 µM (inactive) | 80.5 µM (inactive) | 45.9 µM (inactive) | > 100 µM (inactive) | > 100 µM (inactive)
